# Test results taken from PubChem BioAssay AID1845215 (Molecular Pharmacology Branch, DTP, NCI, 2023).
# Values joined by “and” are separate entries in the source; they are usually repeats but may differ in a detail not shown here. Equal values may be shown once.
# System: SW 1271 complex tumor spheroid viability
# Experiment: Anticancer human tumor SW 1271 cell line growth inhibition;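 further: spheroids exposed to agents for seven days before readout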;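 on viability, T/C: percent of DMSO vehicle control luminescence so 100% = vehicle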
# Conditions: for viability, T/C: stronger effect = lower value
# In short: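 Complex tumor spheroids combined malignant cells with endothelial cells and mesenchymal stem cells. DNA-damaging drugs and DNA repair inhibitors were tested alone and in combination, at half-log dilutions down from clinical Cmax (top 10 microM if Cmax unknown), 0.25% DMSO final.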
# [1] = curve of first compound, second compound 0.003 µM
smiles,measurement,setting,value
[2H]c1nc(C)nc([2H])c1-c1cc(NC[C@@H](C)c2cccc3c(C(=O)NC)ccnc23)ncn1 + Cn1nnc2c(C(N)=O)ncn2c1=O,IC50,"curve of first compound, second compound 1 µM",> 10000 nM
same,IC50,"curve of first compound, second compound 3.16 µM",> 10000 nM
same,IC50,"curve of first compound, second compound 10 µM",> 10000 nM
same,IC50,"curve of first compound, second compound 31.6 µM",> 10000 nM
same,IC50,"curve of first compound, second compound 100 µM",> 10000 nM
same,"viability, T/C","second compound 1 µM, first compound 0.0316 µM",91.1%
same,"viability, T/C","second compound 1 µM, first compound 0.1 µM",101%
same,"viability, T/C","second compound 1 µM, first compound 0.316 µM",95.1%
same,"viability, T/C","second compound 1 µM, first compound 1 µM",96.7%
same,"viability, T/C","second compound 1 µM, first compound 3.16 µM",98.9%
same,"viability, T/C","second compound 1 µM, first compound 10 µM",78.5%
same,"viability, T/C","second compound 3.16 µM, first compound 0.0316 µM",104%
same,"viability, T/C","second compound 3.16 µM, first compound 0.1 µM",103%
same,"viability, T/C","second compound 3.16 µM, first compound 0.316 µM",103%
same,"viability, T/C","second compound 3.16 µM, first compound 1 µM",98.9%
same,"viability, T/C","second compound 3.16 µM, first compound 3.16 µM",96.8%
same,"viability, T/C","second compound 3.16 µM, first compound 10 µM",84.8%
same,"viability, T/C","second compound 10 µM, first compound 0.0316 µM",101%
same,"viability, T/C","second compound 10 µM, first compound 0.1 µM",103%
same,"viability, T/C","second compound 10 µM, first compound 0.316 µM",92.4%
same,"viability, T/C","second compound 10 µM, first compound 1 µM",88.3%
same,"viability, T/C","second compound 10 µM, first compound 3.16 µM",87.2%
same,"viability, T/C","second compound 10 µM, first compound 10 µM",81.1%
same,"viability, T/C","second compound 31.6 µM, first compound 0.0316 µM",110%
same,"viability, T/C","second compound 31.6 µM, first compound 0.1 µM",99.3%
same,"viability, T/C","second compound 31.6 µM, first compound 0.316 µM",100%
same,"viability, T/C","second compound 31.6 µM, first compound 1 µM",98.7%
same,"viability, T/C","second compound 31.6 µM, first compound 3.16 µM",98.3%
same,"viability, T/C","second compound 31.6 µM, first compound 10 µM",80.3%
same,"viability, T/C","second compound 100 µM, first compound 0.0316 µM",93.1%
same,"viability, T/C","second compound 100 µM, first compound 0.1 µM",90.2%
same,"viability, T/C","second compound 100 µM, first compound 0.316 µM",86%
same,"viability, T/C","second compound 100 µM, first compound 1 µM",77.8%
same,"viability, T/C","second compound 100 µM, first compound 3.16 µM",73.8%
same,"viability, T/C","second compound 100 µM, first compound 10 µM",64.7%
CC1COCCN1c1cc(-c2ccnn2C)c2ccnc(-c3ccn[nH]3)c2n1 (configuration not stated),"viability, T/C",compound 0.0316 µM,76.6% and 87.1% and 78.6%
same,"viability, T/C",compound 0.1 µM,50.5% and 44.6% and 58.8%
same,"viability, T/C",compound 0.316 µM,25.2% and 31.1% and 21.6%
same,"viability, T/C",compound 1 µM,4.08% and 5.26% and 4.1%
same,"viability, T/C",compound 3.16 µM,2.44% and 3.8% and 2.04%
same,"viability, T/C",compound 10 µM,2.18% and 3.01% and 1.85%
same,IC50,curve of compound,107 nM and 93.4 nM and 131 nM
CNCc1ccc(-c2cc(-c3nc(-c4ccc(S(=O)(=O)C(C)C)cc4)cnc3N)on2)cc1 + COc1cc2c(cc1O)CCNC21CSC2c3c(OC(C)=O)c(C)c4c(c3C(COC1=O)N1C(O)C3Cc5cc(C)c(OC)c(O)c5C(C21)N3C)OCO4,IC50,"curve of first compound, second compound 30 pM",117 nM
same,IC50,"curve of first compound, second compound 94.9 pM",26.6 nM
same,IC50,"curve of first compound, second compound 0.0003 µM",< 9.49 nM
same,IC50,"curve of first compound, second compound 0.000949 µM",< 9.49 nM
same,IC50,[1],< 9.49 nM
same,"viability, T/C","second compound 30 pM, first compound 0.00949 µM",89.6%
same,"viability, T/C","second compound 30 pM, first compound 0.03 µM",89.7%
same,"viability, T/C","second compound 30 pM, first compound 0.0949 µM",55.5%
same,"viability, T/C","second compound 30 pM, first compound 0.3 µM",18.8%
same,"viability, T/C","second compound 30 pM, first compound 0.949 µM",11.3%
same,"viability, T/C","second compound 30 pM, first compound 3 µM",0.15%
same,"viability, T/C","second compound 94.9 pM, first compound 0.00949 µM",64%
same,"viability, T/C","second compound 94.9 pM, first compound 0.03 µM",42.6%
same,"viability, T/C","second compound 94.9 pM, first compound 0.0949 µM",37%
same,"viability, T/C","second compound 94.9 pM, first compound 0.3 µM",27.9%
same,"viability, T/C","second compound 94.9 pM, first compound 0.949 µM",14.7%
same,"viability, T/C","second compound 94.9 pM, first compound 3 µM",0.12%
same,"viability, T/C","second compound 0.0003 µM, first compound 0.00949 µM",28.8%
same,"viability, T/C","second compound 0.0003 µM, first compound 0.03 µM",35.5%
same,"viability, T/C","second compound 0.0003 µM, first compound 0.0949 µM",38.5%
same,"viability, T/C","second compound 0.0003 µM, first compound 0.3 µM",35%
same,"viability, T/C","second compound 0.0003 µM, first compound 0.949 µM",19.5%
same,"viability, T/C","second compound 0.0003 µM, first compound 3 µM",0.15%
same,"viability, T/C","second compound 0.000949 µM, first compound 0.00949 µM",5.31%
same,"viability, T/C","second compound 0.000949 µM, first compound 0.03 µM",7.14%
same,"viability, T/C","second compound 0.000949 µM, first compound 0.0949 µM",3.92%
same,"viability, T/C","second compound 0.000949 µM, first compound 0.3 µM",2.05%
same,"viability, T/C","second compound 0.000949 µM, first compound 0.949 µM",1.95%
same,"viability, T/C","second compound 0.000949 µM, first compound 3 µM",0.11%
same,"viability, T/C","second compound 0.003 µM, first compound 0.00949 µM",0.11%
same,"viability, T/C","second compound 0.003 µM, first compound 0.03 µM",0.11%
same,"viability, T/C","second compound 0.003 µM, first compound 0.0949 µM",0.09%
same,"viability, T/C","second compound 0.003 µM, first compound 0.3 µM",0.09%
same,"viability, T/C","second compound 0.003 µM, first compound 0.949 µM",0.1%
same,"viability, T/C","second compound 0.003 µM, first compound 3 µM",0.16%
CC1COCCN1c1cc(-c2ccnn2C)c2ccnc(-c3ccn[nH]3)c2n1 (configuration not stated) + CC[C@@]1(O)C(=O)OCc2c1cc1n(c2=O)Cc2cc3c(CN(C)C)c(O)ccc3nc2-1,IC50,[1],< 31.6 nM
same,IC50,"curve of first compound, second compound 0.00949 µM",< 31.6 nM
same,IC50,"curve of first compound, second compound 0.03 µM",< 31.6 nM
same,IC50,"curve of first compound, second compound 0.0949 µM",< 31.6 nM
same,IC50,"curve of first compound, second compound 0.3 µM",< 31.6 nM
same,"viability, T/C","second compound 0.003 µM, first compound 0.0316 µM",26%
same,"viability, T/C","second compound 0.003 µM, first compound 0.1 µM",11.3%
same,"viability, T/C","second compound 0.003 µM, first compound 0.316 µM",4.59%
same,"viability, T/C","second compound 0.003 µM, first compound 1 µM",2.3%
same,"viability, T/C","second compound 0.003 µM, first compound 3.16 µM",1.84%
same,"viability, T/C","second compound 0.003 µM, first compound 10 µM",1.92%
same,"viability, T/C","second compound 0.00949 µM, first compound 0.0316 µM",6.62%
same,"viability, T/C","second compound 0.00949 µM, first compound 0.1 µM",4.56%
same,"viability, T/C","second compound 0.00949 µM, first compound 0.316 µM",3.33%
same,"viability, T/C","second compound 0.00949 µM, first compound 1 µM",2.14%
same,"viability, T/C","second compound 0.00949 µM, first compound 3.16 µM",1.49%
same,"viability, T/C","second compound 0.00949 µM, first compound 10 µM",1.95%
same,"viability, T/C","second compound 0.03 µM, first compound 0.0316 µM",6.54%
same,"viability, T/C","second compound 0.03 µM, first compound 0.1 µM",4.67%
same,"viability, T/C","second compound 0.03 µM, first compound 0.316 µM",3.37%
same,"viability, T/C","second compound 0.03 µM, first compound 1 µM",2.33%
same,"viability, T/C","second compound 0.03 µM, first compound 3.16 µM",1.73%
same,"viability, T/C","second compound 0.03 µM, first compound 10 µM",1.79%
same,"viability, T/C","second compound 0.0949 µM, first compound 0.0316 µM",8.42%
same,"viability, T/C","second compound 0.0949 µM, first compound 0.1 µM",6.2%
same,"viability, T/C","second compound 0.0949 µM, first compound 0.316 µM",4.79%
same,"viability, T/C","second compound 0.0949 µM, first compound 1 µM",2.58%
same,"viability, T/C","second compound 0.0949 µM, first compound 3.16 µM",1.54%
same,"viability, T/C","second compound 0.0949 µM, first compound 10 µM",1.64%
same,"viability, T/C","second compound 0.3 µM, first compound 0.0316 µM",5.08%
same,"viability, T/C","second compound 0.3 µM, first compound 0.1 µM",3.04%
same,"viability, T/C","second compound 0.3 µM, first compound 0.316 µM",2.79%
same,"viability, T/C","second compound 0.3 µM, first compound 1 µM",2.96%
same,"viability, T/C","second compound 0.3 µM, first compound 3.16 µM",1.02%
same,"viability, T/C","second compound 0.3 µM, first compound 10 µM",0.73%
